Reference: the supplement of paper PMC11061612

How the values were obtained:
Experiment in all cases: combination Emax (second highest fraction inhibited in the dose matrix, 72 h); higher = more inhibition; extreme values may be limits of the assay
[1] = system: KARPAS-45 (T-Lymphoblastic Leukemia)
Procedure, shortened: (§1)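 Bliss excess equals the observed combination effect minus the expected value EA + EB − EA·EB, where EA and EB are the effects of each agent alone. Combination Emax is the second-highest inhibition within the matrix. Inhibition was scaled from CellTiter-Glo 2.0 luminescence, with 0 set by vehicle wells and 1 by blank wells, after 72 hours of two-drug dosing of cells plated in 1536-well plates.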

[2] = system: TC-71 (Ewing's Sarcoma)
Procedure, shortened: as §1

[3] = system: PANC-08-13 (Pancreatic Carcinoma)
Procedure, shortened: as §1

[4] = system: SR (Other Blood Carcinomas)
Procedure, shortened: as §1

[5] = system: KCL-22 (Chronic Myelogenous Leukemia)
Procedure, shortened: as §1

[6] = system: MKN28 (Gastric Carcinoma)
Procedure, shortened: as §1

[7] = system: NCI-H1792 (Lung Adenocarcinoma)
Procedure, shortened: as §1

[8] = system: GR-ST (B-Lymphoblastic Leukemia)
Procedure, shortened: as §1

[9] = system: K-562 (Chronic Myelogenous Leukemia)
Procedure, shortened: as §1

[10] = system: SU-DHL-8 (B-Cell Non-Hodgkin's Lymphoma)
Procedure, shortened: as §1

[11] = system: CHP-212 (Neuroblastoma)
Procedure, shortened: as §1

[12] = system: MFM-223 (Breast Carcinoma)
Procedure, shortened: as §1

[13] = system: ES1 (Ewing's Sarcoma)
Procedure, shortened: as §1

[14] = system: NCI-H2818 (Mesothelioma)
Procedure, shortened: as §1

[15] = system: NCI-H847 (Small Cell Lung Carcinoma)
Procedure, shortened: as §1

[16] = system: WM-115 (Melanoma)
Procedure, shortened: as §1

[17] = system: L-540 (Hodgkin's Lymphoma)
Procedure, shortened: as §1

[18] = system: HDQ-P1 (Breast Carcinoma)
Procedure, shortened: as §1

[19] = system: DND-41 (T-Lymphoblastic Leukemia)
Procedure, shortened: as §1

[20] = system: MS751 (Cervical Carcinoma)
Procedure, shortened: as §1

CN(C)CCCOc1ccc(-c2ccc3ncc4c(c3c2)n(C2CCOCC2)c(=O)n4C)cn1 [AZD0156] + C=CCn1c(=O)c2cnc(Nc3ccc(N4CCN(C)CC4)cc3)nc2n1-c1cccc(C(C)(C)O)n1 [AZD1775] (first compound max 1 µM, partner max 1 µM)
combination Emax [1]: 0.854
combination Emax [2]: 0.452
combination Emax [3]: 0.247
combination Emax [4]: 0.99
combination Emax [5]: 0.895
combination Emax [6]: 0.481
combination Emax [7]: 0.643
combination Emax [8]: 0.78
combination Emax [9]: 0.715
combination Emax [10]: 0.888
combination Emax [11]: 0.831
combination Emax [12]: 0.653
combination Emax [13]: 0.682
combination Emax [14]: 0.327
combination Emax [15]: 0.971
combination Emax [16]: 0.254
combination Emax [17]: 0.954
combination Emax [18]: 0.469
combination Emax [19]: 0.848
combination Emax [20]: 0.155

CN(C)CCCOc1ccc(-c2ccc3ncc4c(c3c2)n(C2CCOCC2)c(=O)n4C)cn1 [AZD0156] + CCN(CCO)CCCOc1ccc2c(Nc3cc(CC(=O)Nc4cccc(F)c4)[nH]n3)ncnc2c1 [AZD2811] (first compound max 1 µM, 7x7, partner max 1 µM)
combination Emax [1]: 0.919
combination Emax [2]: 0.837
combination Emax [3]: 0.0865
combination Emax [4]: 0.849
combination Emax [5]: 0.333
combination Emax [6]: 0.135
combination Emax [7]: 0.147
combination Emax [8]: 0.276
combination Emax [9]: 0.23
combination Emax [10]: 0.253
combination Emax [11]: 0.803
combination Emax [12]: 0.168
combination Emax [13]: 0.69
combination Emax [14]: 0.16
combination Emax [15]: 0.949
combination Emax [16]: 0.183
combination Emax [17]: 0.366
combination Emax [18]: 0.211
combination Emax [19]: 0.206
combination Emax [20]: 0.326

CN(C)CCCOc1ccc(-c2ccc3ncc4c(c3c2)n(C2CCOCC2)c(=O)n4C)cn1 [AZD0156] + C[C@@H]1COCCN1C2=NC(=NC(=C2)C3(CC3)[S@](=N)(=O)C)C4=C5C=CNC5=NC=C4 [AZD6738] (first compound max 1 µM, 7x7, partner max 10 µM)
combination Emax [1]: 0.857
combination Emax [2]: 0.952
combination Emax [3]: 0.373
combination Emax [4]: 0.946
combination Emax [5]: 0.978
combination Emax [6]: 0.471
combination Emax [7]: 0.707
combination Emax [8]: 0.715
combination Emax [9]: 0.9
combination Emax [10]: 0.892
combination Emax [11]: 0.839
combination Emax [12]: 0.828
combination Emax [13]: 0.956
combination Emax [14]: 0.324
combination Emax [15]: 0.956
combination Emax [16]: 0.488
combination Emax [17]: 0.93
combination Emax [18]: 0.381
combination Emax [19]: 0.844
combination Emax [20]: 0.271

CN(C)CCCOc1ccc(-c2ccc3ncc4c(c3c2)n(C2CCOCC2)c(=O)n4C)cn1 [AZD0156] + O=C(c1cc(Cc2n[nH]c(=O)c3ccccc23)ccc1F)N1CCN(C(=O)C2CC2)CC1 [Olaparib] (first compound max 3 µM, partner max 3 µM)
combination Emax [1]: 0.238
combination Emax [2]: 0.804
combination Emax [3]: 0.241
combination Emax [4]: 0.675
combination Emax [5]: 0.457
combination Emax [6]: 0.0496
combination Emax [7]: 0.267
combination Emax [8]: 0.6
combination Emax [9]: 0.171
combination Emax [10]: 0.266
combination Emax [11]: 0.519
combination Emax [12]: 0.179
combination Emax [13]: 0.834
combination Emax [14]: 0.38
combination Emax [15]: 0.64
combination Emax [16]: 0.356
combination Emax [17]: 0.406
combination Emax [18]: 0.371
combination Emax [19]: 0.372
combination Emax [20]: 0.232

C=CCn1c(=O)c2cnc(Nc3ccc(N4CCN(C)CC4)cc3)nc2n1-c1cccc(C(C)(C)O)n1 [AZD1775] + C1CN(CCC1(C(=O)N[C@@H](CCO)C2=CC=C(C=C2)Cl)N)C3=NC=NC4=C3C=CN4 [Capivasertib] (first compound max 3 µM, partner max 3 µM)
combination Emax [1]: 0.962
combination Emax [2]: 0.92
combination Emax [3]: 0.544
combination Emax [4]: 0.999
combination Emax [5]: 0.962
combination Emax [6]: 0.609
combination Emax [7]: 0.808
combination Emax [8]: 0.818
combination Emax [9]: 0.895
combination Emax [10]: 0.953
combination Emax [11]: 0.859
combination Emax [12]: 0.711
combination Emax [13]: 0.797
combination Emax [14]: 0.493
combination Emax [15]: 1
combination Emax [16]: 0.536
combination Emax [17]: 0.862
combination Emax [18]: 0.856
combination Emax [19]: 0.899
combination Emax [20]: 0.899

CN(CCO)CC[C@H](CSc1ccccc1)Nc1ccc(S(=O)(=O)NC(=O)c2ccc(N3CCC([C@@H](O)c4ccccc4-c4ccc(Cl)cc4)CC3)cc2)cc1S(=O)(=O)C(F)(F)F [AZD4320] + C1CN(CCC1(C(=O)N[C@@H](CCO)C2=CC=C(C=C2)Cl)N)C3=NC=NC4=C3C=CN4 [Capivasertib] (first compound max 1 µM, 7x7, partner max 3 µM)
combination Emax [1]: 0.987
combination Emax [2]: 0.544
combination Emax [3]: 0.422
combination Emax [4]: 0.49
combination Emax [5]: 0.35
combination Emax [7]: 0.0895
combination Emax [8]: 0.402
combination Emax [9]: 0.129
combination Emax [10]: 0.916
combination Emax [11]: 0.176
combination Emax [12]: 0.741
combination Emax [13]: 0.246
combination Emax [14]: 0.184
combination Emax [15]: 1
combination Emax [16]: 0.829
combination Emax [17]: 0.279
combination Emax [18]: 0.584
combination Emax [19]: 1
combination Emax [20]: 0.132

CN(CCO)CC[C@H](CSc1ccccc1)Nc1ccc(S(=O)(=O)NC(=O)c2ccc(N3CCC([C@@H](O)c4ccccc4-c4ccc(Cl)cc4)CC3)cc2)cc1S(=O)(=O)C(F)(F)F [AZD4320] + CCN(CCO)CCCOc1ccc2c(Nc3cc(CC(=O)Nc4cccc(F)c4)[nH]n3)ncnc2c1 [AZD2811] (first compound max 1 µM, 7x7, partner max 1 µM)
combination Emax [1]: 1
combination Emax [3]: 0.422
combination Emax [4]: 0.938
combination Emax [5]: 0.556
combination Emax [6]: 0.184
combination Emax [7]: 0.113
combination Emax [8]: 0.151
combination Emax [9]: 0.333
combination Emax [10]: 1
combination Emax [11]: 0.758
combination Emax [12]: 0.693
combination Emax [13]: 0.613
combination Emax [14]: 0.191
combination Emax [15]: 1
combination Emax [16]: 0.453
combination Emax [17]: 0.594
combination Emax [18]: 0.849
combination Emax [19]: 1
combination Emax [20]: 0.348

CN(CCO)CC[C@H](CSc1ccccc1)Nc1ccc(S(=O)(=O)NC(=O)c2ccc(N3CCC([C@@H](O)c4ccccc4-c4ccc(Cl)cc4)CC3)cc2)cc1S(=O)(=O)C(F)(F)F [AZD4320] + C[C@@H](Nc1cc(F)cc(F)c1)c1cc(C(=O)N(C)C)cc2c(=O)cc(N3CCOCC3)oc12 [AZD8186] (first compound max 1 µM, 7x7, partner max 3 µM)
combination Emax [1]: 1
combination Emax [2]: 1
combination Emax [3]: 0.481
combination Emax [4]: 0.713
combination Emax [5]: 0.33
combination Emax [6]: 0.263
combination Emax [7]: 0.323
combination Emax [8]: 0.537
combination Emax [9]: 0.313
combination Emax [10]: 1
combination Emax [11]: 0.752
combination Emax [13]: 0.725
combination Emax [14]: 0.365
combination Emax [15]: 1
combination Emax [16]: 0.914
combination Emax [17]: 0.668
combination Emax [18]: 0.787
combination Emax [19]: 1
combination Emax [20]: 0.3

CN(CCO)CC[C@H](CSc1ccccc1)Nc1ccc(S(=O)(=O)NC(=O)c2ccc(N3CCC([C@@H](O)c4ccccc4-c4ccc(Cl)cc4)CC3)cc2)cc1S(=O)(=O)C(F)(F)F [AZD4320] + Cn1cnc2c(F)c(Nc3ccc(Br)cc3Cl)c(C(=O)NOCCO)cc21 [Selumetinib] (first compound max 1 µM, 7x7, partner max 3 µM)
combination Emax [1]: 0.996
combination Emax [2]: 0.985
combination Emax [3]: 0.528
combination Emax [4]: 0.731
combination Emax [5]: 0.557
combination Emax [6]: 0.356
combination Emax [7]: 0.369
combination Emax [8]: 0.494
combination Emax [9]: 0.516
combination Emax [10]: 0.988
combination Emax [11]: 0.925
combination Emax [13]: 0.786
combination Emax [14]: 0.31
combination Emax [15]: 1
combination Emax [16]: 0.878
combination Emax [17]: 0.716
combination Emax [18]: 0.771
combination Emax [19]: 1
combination Emax [20]: 0.413

Cc1c2c(nn1C)CSCc1cc(n(C)n1)CSc1cc(c3ccccc3c1)OCCCc1c(C(=O)O)n(C)c3c-2c(Cl)ccc13 [AZD5991] + C1CN(CCC1(C(=O)N[C@@H](CCO)C2=CC=C(C=C2)Cl)N)C3=NC=NC4=C3C=CN4 [Capivasertib] (first compound max 1 µM, 7x7, partner max 3 µM)
combination Emax [1]: 1
combination Emax [2]: 0.47
combination Emax [3]: 0.15
combination Emax [4]: 0.993
combination Emax [5]: 0.981
combination Emax [6]: 0.12
combination Emax [7]: 0.302
combination Emax [8]: 0.38
combination Emax [9]: 0.374
combination Emax [10]: 0.673
combination Emax [12]: 0.788
combination Emax [13]: 0.955
combination Emax [14]: 0.258
combination Emax [15]: 0.78
combination Emax [16]: 0.584
combination Emax [17]: 1
combination Emax [18]: 0.232
combination Emax [19]: 0.111
combination Emax [20]: 0.855

Cc1c2c(nn1C)CSCc1cc(n(C)n1)CSc1cc(c3ccccc3c1)OCCCc1c(C(=O)O)n(C)c3c-2c(Cl)ccc13 [AZD5991] + C=CCn1c(=O)c2cnc(Nc3ccc(N4CCN(C)CC4)cc3)nc2n1-c1cccc(C(C)(C)O)n1 [AZD1775] (first compound max 1 µM, partner max 1 µM)
combination Emax [1]: 1
combination Emax [2]: 0.578
combination Emax [3]: 0.379
combination Emax [4]: 0.923
combination Emax [5]: 0.969
combination Emax [6]: 0.572
combination Emax [7]: 0.708
combination Emax [8]: 0.791
combination Emax [9]: 0.747
combination Emax [10]: 1
combination Emax [11]: 0.916
combination Emax [12]: 0.562
combination Emax [14]: 0.519
combination Emax [15]: 1
combination Emax [16]: 0.34
combination Emax [17]: 1
combination Emax [18]: 0.579
combination Emax [19]: 0.875
combination Emax [20]: 0.9

CCc1c2c(nc3ccc(O)cc13)-c1cc3c(c(=O)n1C2)COC(=O)[C@]3(O)CC [SN-38] + O=C(c1cc(Cc2n[nH]c(=O)c3ccccc23)ccc1F)N1CCN(C(=O)C2CC2)CC1 [Olaparib] (first compound max 0.3 µM, 7x7, partner max 10 µM)
combination Emax [3]: 0.297
combination Emax [4]: 0.982
combination Emax [5]: 0.887
combination Emax [6]: 0.553
combination Emax [7]: 0.575
combination Emax [8]: 0.74
combination Emax [9]: 0.672
combination Emax [12]: 0.257
combination Emax [13]: 1
combination Emax [14]: 0.359
combination Emax [15]: 1
combination Emax [16]: 0.391
combination Emax [17]: 0.965
combination Emax [18]: 0.702
combination Emax [19]: 0.947
combination Emax [20]: 0.899
